These results are taken from patent US11306101B2 (Celgene Corporation, priority 2019, dated 2022).

The target in this experiment is T1, CK1α (Homo sapiens, UniProt P48729+Q96SW2).
T1 construct: expressed in transfected cells
The experiment can be described thus: CK1α ePL degradation assay in MDS-L cells. To be noted: MDS-L cells expressing ePL-tagged CK1α; for DC50: concentration giving 50% CK1α degradation vs DMSO control; for Y: lowest measured CK1α level normalized to DMSO control. The class given is cell-based. The gist of the method:
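Degradation efficiency is reported as Y value, the minimum CK1α level (percent of DMSO control) across doses. Readout used InCELL Hunter luminescent detection after MDS-L cell exposure at 37° C for stated times, doses 10 μM down to 0.0005 μM in 3-fold steps.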

T1 sequence (P48729 whole entry): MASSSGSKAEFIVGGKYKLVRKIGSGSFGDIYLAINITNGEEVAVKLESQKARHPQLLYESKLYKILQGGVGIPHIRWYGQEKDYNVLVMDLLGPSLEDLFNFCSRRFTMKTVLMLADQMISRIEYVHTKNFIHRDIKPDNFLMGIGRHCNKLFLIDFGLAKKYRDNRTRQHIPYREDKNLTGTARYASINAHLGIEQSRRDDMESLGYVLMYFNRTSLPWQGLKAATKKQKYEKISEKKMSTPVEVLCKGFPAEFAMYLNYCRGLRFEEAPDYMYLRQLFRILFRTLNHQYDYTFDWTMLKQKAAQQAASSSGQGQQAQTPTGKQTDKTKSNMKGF
T1 sequence (Q96SW2 whole entry): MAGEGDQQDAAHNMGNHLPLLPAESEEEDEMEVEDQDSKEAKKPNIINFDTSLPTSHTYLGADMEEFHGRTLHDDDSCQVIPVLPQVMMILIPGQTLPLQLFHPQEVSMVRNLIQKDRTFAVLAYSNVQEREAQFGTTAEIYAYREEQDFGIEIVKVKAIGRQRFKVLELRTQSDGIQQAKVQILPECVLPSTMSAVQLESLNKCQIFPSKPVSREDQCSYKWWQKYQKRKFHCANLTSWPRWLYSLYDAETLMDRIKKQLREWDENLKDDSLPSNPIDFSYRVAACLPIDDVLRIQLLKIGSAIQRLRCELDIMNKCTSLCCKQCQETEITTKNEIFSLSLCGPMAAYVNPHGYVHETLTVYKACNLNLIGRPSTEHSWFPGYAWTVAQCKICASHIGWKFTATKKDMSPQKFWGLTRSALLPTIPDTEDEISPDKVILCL
T1 sequence (Q16531 whole entry partner): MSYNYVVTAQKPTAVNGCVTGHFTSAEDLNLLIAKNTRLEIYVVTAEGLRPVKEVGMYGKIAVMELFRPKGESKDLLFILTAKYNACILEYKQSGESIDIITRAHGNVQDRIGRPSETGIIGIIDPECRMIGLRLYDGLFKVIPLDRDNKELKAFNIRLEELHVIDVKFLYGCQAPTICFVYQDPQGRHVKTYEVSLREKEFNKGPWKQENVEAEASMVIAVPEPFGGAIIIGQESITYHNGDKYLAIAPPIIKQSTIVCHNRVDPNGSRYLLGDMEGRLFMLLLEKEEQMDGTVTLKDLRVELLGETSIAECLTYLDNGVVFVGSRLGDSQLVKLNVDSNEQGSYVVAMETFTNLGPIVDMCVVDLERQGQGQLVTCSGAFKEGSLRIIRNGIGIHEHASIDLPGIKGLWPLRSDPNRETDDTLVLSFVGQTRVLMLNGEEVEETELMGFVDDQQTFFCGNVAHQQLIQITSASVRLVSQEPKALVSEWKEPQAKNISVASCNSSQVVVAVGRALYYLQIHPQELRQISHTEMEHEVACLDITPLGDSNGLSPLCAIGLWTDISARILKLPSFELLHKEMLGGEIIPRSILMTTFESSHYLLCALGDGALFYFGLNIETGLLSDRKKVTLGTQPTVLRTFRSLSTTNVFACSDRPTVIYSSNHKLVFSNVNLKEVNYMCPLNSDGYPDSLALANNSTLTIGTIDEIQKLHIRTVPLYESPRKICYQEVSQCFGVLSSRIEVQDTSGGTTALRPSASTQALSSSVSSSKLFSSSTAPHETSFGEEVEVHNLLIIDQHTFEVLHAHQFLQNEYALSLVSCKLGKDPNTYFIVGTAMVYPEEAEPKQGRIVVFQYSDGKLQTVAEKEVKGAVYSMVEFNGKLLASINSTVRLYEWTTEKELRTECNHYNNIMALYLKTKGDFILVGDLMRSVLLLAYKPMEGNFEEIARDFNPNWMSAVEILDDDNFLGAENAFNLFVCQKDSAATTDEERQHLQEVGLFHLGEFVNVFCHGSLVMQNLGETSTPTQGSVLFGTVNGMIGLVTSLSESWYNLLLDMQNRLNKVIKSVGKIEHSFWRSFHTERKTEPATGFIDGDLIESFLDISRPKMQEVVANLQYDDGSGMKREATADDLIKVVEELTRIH

In the case of `O=C1CCC(N2Cc3cc(C(=O)N[C@H](CC(F)(F)F)c4cccc(F)c4)ccc3C2=O)C(=O)N1` (stereo partly drawn) [Example 190, 2-(2,6-dioxopiperidin-3-yl)-1-oxo-N-((R)-3,3,3-trifluoro-1-(3-fluorophenyl)propyl)isoindoline-5-carboxamide], the DC50 – broadly, the concentration at which degradation of the target reaches its halfway point – was < 100 nM and the Y result is reported as “** (a Y value (shown as**) of 20%<Y≤35%)”.
On the same counts, the results for `O=C1CCC(N2Cc3cc(C(=O)N[C@H](CC(F)(F)F)c4ccc(F)cc4)ccc3C2=O)C(=O)N1` (stereo partly drawn) [Example 191, 2-(2,6-dioxopiperidin-3-yl)-1-oxo-N-((R)-3,3,3-trifluoro-1-(4-fluorophenyl)propyl)isoindoline-5-carboxamide] are 100 to 500 nM and “** (a Y value (shown as**) of 20%<Y≤35%)”.
For `CN(C)Cc1ccccc1[C@@H](NC(=O)c1ccc2c(c1)CN(C1CCC(=O)NC1=O)C2=O)C(F)(F)F` (stereo partly drawn) [Example 192, N-((R)-1-(2-((dimethylamino)methyl)phenyl)-2,2,2-trifluoroethyl)-2-(2,6-dioxopiperidin-3-yl)-1-oxoisoindoline-5-carboxamide], in that order: < 100 nM and “* (a Y value (shown as *) of 0<Y≤20%)”.
For `O=C1CC[C@H](N2Cc3cc(C(=O)N[C@H](c4ncc(Cl)cc4F)C(F)(F)F)ccc3C2=O)C(=O)N1` [Example 193, N-((R)-1-(5-chloro-3-fluoropyridin-2-yl)-2,2,2-trifluoroethyl)-2-((S)-2,6-dioxopiperidin-3-yl)-1-oxoisoindoline-5-carboxamide], in that order: < 100 nM and “* (a Y value (shown as *) of 0<Y≤20%)”.
For the molecule `O=C1CCC(N2Cc3cc(C(=O)N[C@H](CC(F)(F)F)c4cccc(Cl)c4)ccc3C2=O)C(=O)N1` (stereo partly drawn) [Example 194, N-((R)-1-(3-chlorophenyl)-3,3,3-trifluoropropyl)-2-(2,6-dioxopiperidin-3-yl)-1-oxoisoindoline-5-carboxamide], the DC50 is < 100 nM and the Y entry is reported as “** (a Y value (shown as**) of 20%<Y≤35%)”.
Regarding `O=C1CCC(N2Cc3cc(C(=O)N[C@H](CC(F)(F)F)c4ccccc4F)ccc3C2=O)C(=O)N1` (stereo partly drawn) [Example 195, 2-(2,6-dioxopiperidin-3-yl)-1-oxo-N-((R)-3,3,3-trifluoro-1-(2-fluorophenyl)propyl)isoindoline-5-carboxamide], the 50% degradation concentration (DC50) is < 100 nM and the Y entry is recorded as “* (a Y value (shown as *) of 0<Y≤20%)”.
For `Cc1ccccc1[C@@H](CC(F)(F)F)NC(=O)c1ccc2c(c1)CN(C1CCC(=O)NC1=O)C2=O` (stereo partly drawn) [Example 196, 2-(2,6-dioxopiperidin-3-yl)-1-oxo-N-((R)-3,3,3-trifluoro-1-o-tolylpropyl)isoindoline-5-carboxamide], in that order: < 100 nM and “* (a Y value (shown as *) of 0<Y≤20%)”.
For the molecule `O=C1CCC(N2Cc3cc(C(=O)N[C@@H](c4ccccc4F)C(F)(F)F)ccc3C2=O)C(=O)N1` (stereo partly drawn) [Example 197, 2-(2,6-dioxopiperidin-3-yl)-1-oxo-N-((S)-2,2,2-trifluoro-1-(2-fluorophenyl)ethyl)isoindoline-5-carboxamide], the 50% degradation concentration (DC50) lay within 500 to 1000 nM and the Y result is listed as “*** (a Y value (shown as***) of 35%<Y<50%)”.
For `CN(C)Cc1ccc([C@@H](NC(=O)c2ccc3c(c2)CN(C2CCC(=O)NC2=O)C3=O)C(F)(F)F)c(Cl)c1` (stereo partly drawn) [Example 198, N-((R)-1-(2-chloro-4-((dimethylamino)methyl)phenyl)-2,2,2-trifluoroethyl)-2-(2,6-dioxopiperidin-3-yl)-1-oxoisoindoline-5-carboxamide], in that order: < 100 nM and “* (a Y value (shown as *) of 0<Y≤20%)”.
For `Cc1cccnc1[C@@H](NC(=O)c1ccc2c(c1)CN(C1CCC(=O)NC1=O)C2=O)C(F)(F)F` (stereo partly drawn) [Example 199, 2-(2,6-dioxopiperidin-3-yl)-1-oxo-N-((R)-2,2,2-trifluoro-1-(3-methylpyridin-2-yl)ethyl)isoindoline-5-carboxamide], in that order: < 100 nM and “* (a Y value (shown as *) of 0<Y≤20%)”.
`COc1cccnc1[C@@H](NC(=O)c1ccc2c(c1)CN(C1CCC(=O)NC1=O)C2=O)C(F)(F)F` (stereo partly drawn) [Example 200, 2-(2,6-dioxopiperidin-3-yl)-1-oxo-N-((R)-2,2,2-trifluoro-1-(3-methoxypyridin-2-yl)ethyl)isoindoline-5-carboxamide]: the DC50 is < 100 nM and the Y result is given as “* (a Y value (shown as *) of 0<Y≤20%)”.
For `O=C1CCC(N2Cc3cc(C(=O)N[C@H](c4cccc(N5CCOCC5)c4)C(F)(F)F)ccc3C2=O)C(=O)N1` (stereo partly drawn) [Example 201, 2-(2,6-dioxopiperidin-3-yl)-1-oxo-N-((R)-2,2,2-trifluoro-1-(3-morpholinophenyl)ethyl)isoindoline-5-carboxamide], in that order: < 100 nM and “* (a Y value (shown as *) of 0<Y≤20%)”.
As for `CN(C)Cc1cnc([C@@H](NC(=O)c2ccc3c(c2)CN(C2CCC(=O)NC2=O)C3=O)C(F)(F)F)c(Cl)c1` (stereo partly drawn) [Example 202, N-((R)-1-(3-chloro-5-((dimethylamino)methyl)pyridin-2-yl)-2,2,2-trifluoroethyl)-2-(2,6-dioxopiperidin-3-yl)-1-oxoisoindoline-5-carboxamide], the 50% degradation concentration (DC50) was < 100 nM and the Y result is recorded as “* (a Y value (shown as *) of 0<Y≤20%)”.
On the same counts, the results for `O=C1CCC(N2Cc3cc(C(=O)N[C@H](c4c(F)cc(F)cc4Cl)C(F)(F)F)ccc3C2=O)C(=O)N1` (stereo partly drawn) [Example 203, N-((R)-1-(2-chloro-4,6-difluorophenyl)-2,2,2-trifluoroethyl)-2-(2,6-dioxopiperidin-3-yl)-1-oxoisoindoline-5-carboxamide] are < 100 nM and “* (a Y value (shown as *) of 0<Y≤20%)”.
For `O=C1CCC(N2Cc3cc(C(=O)N[C@H](c4ccc(N5CCOCC5)cc4)C(F)(F)F)ccc3C2=O)C(=O)N1` (stereo partly drawn) [Example 204, 2-(2,6-dioxopiperidin-3-yl)-1-oxo-N-((R)-2,2,2-trifluoro-1-(4-morpholinophenyl)ethyl)isoindoline-5-carboxamide], the DC50 was < 100 nM and the Y entry is listed as “* (a Y value (shown as *) of 0<Y≤20%)”.
On the same counts, the results for `O=C1CCC(N2Cc3cc(C(=O)N[C@H](c4ccccc4N4CCOCC4)C(F)(F)F)ccc3C2=O)C(=O)N1` (stereo partly drawn) [Example 205, 2-(2,6-dioxopiperidin-3-yl)-1-oxo-N-((R)-2,2,2-trifluoro-1-(2-morpholinophenyl)ethyl)isoindoline-5-carboxamide] are < 100 nM and “* (a Y value (shown as *) of 0<Y≤20%)”.
For `CN1CCN(c2ccccc2[C@@H](NC(=O)c2ccc3c(c2)CN(C2CCC(=O)NC2=O)C3=O)C(F)(F)F)CC1` (stereo partly drawn) [Example 206, 2-(2,6-dioxopiperidin-3-yl)-1-oxo-N-((R)-2,2,2-trifluoro-1-(2-(4-methylpiperazin-1-yl)phenyl)ethyl)isoindoline-5-carboxamide], in that order: < 100 nM and “* (a Y value (shown as *) of 0<Y≤20%)”.
For `O=C1CC[C@H](N2Cc3cc(C(=O)N[C@H](c4ncc(Cl)cc4Cl)C(F)(F)F)ccc3C2=O)C(=O)N1` [Example 207, N-((R)-1-(3,5-dichloropyridin-2-yl)-2,2,2-trifluoroethyl)-2-((S)-2,6-dioxopiperidin-3-yl)-1-oxoisoindoline-5-carboxamide], the DC50 is < 100 nM and the Y entry is listed as “* (a Y value (shown as *) of 0<Y≤20%)”.
For `CN1CCN(c2ccc([C@@H](NC(=O)c3ccc4c(c3)CN(C3CCC(=O)NC3=O)C4=O)C(F)(F)F)cc2)CC1` (stereo partly drawn) [Example 208, 2-(2,6-dioxopiperidin-3-yl)-1-oxo-N-((R)-2,2,2-trifluoro-1-(4-(4-methylpiperazin-1-yl)phenyl)ethyl)isoindoline-5-carboxamide], in that order: < 100 nM and “* (a Y value (shown as *) of 0<Y≤20%)”.
In the case of `CN1CCN(c2cccc([C@@H](NC(=O)c3ccc4c(c3)CN(C3CCC(=O)NC3=O)C4=O)C(F)(F)F)c2)CC1` (stereo partly drawn) [Example 209, 2-(2,6-dioxopiperidin-3-yl)-1-oxo-N-((R)-2,2,2-trifluoro-1-(3-(4-methylpiperazin-1-yl)phenyl)ethyl)isoindoline-5-carboxamide], the 50% degradation concentration (DC50) fell in the range of 100 to 500 nM and the Y result was “** (a Y value (shown as**) of 20%<Y≤35%)”.
